Data published in ChEMBL document CHEMBL4196024, “Discovery of 2,4,6-trisubstitued pyrido[3,4-d]pyrimidine derivatives as new EGFR-TKIs” (Eur J Med Chem, 2018).
pIC50: −log10 of the molar value. Active and inactive are the calls of the source. The rule behind the calls is not given here.

Key:
HCC827 [1] = test: Antiproliferative activity against human HCC827 cells harboring EGFR E746-A750 deletion mutant after 72 hrs by MTT assay; type: functional, cell-based; conditions: HCC827, 72 h
A549 = test: Antiproliferative activity against human A549 cells harboring wild type EGFR after 72 hrs by MTT assay; type: cell-based; conditions: A549, 72 h
[2] = molecular target: Epidermal growth factor receptor (Homo sapiens, UniProt P00533, L858R/T790M); test: Inhibition of wild type EGFR L858R/T790M double mutant (unknown origin) using Poly (Glu, Tyr) as substrate after 40 mins by kinase-Glo luminescence assay
NCI-H1975 = test: Antiproliferative activity against human NCI-H1975 cells harboring EGFR L858R/T790M double mutant after 72 hrs by MTT assay; type: functional, cell-based; conditions: NCI-H1975, 72 h
[3] = molecular target: Epidermal growth factor receptor (Homo sapiens, UniProt P00533, L858R); test: Inhibition of wild type EGFR L858R mutant (unknown origin) using Poly (Glu, Tyr) as substrate after 40 mins by kinase-Glo luminescence assay
[4] = molecular target: Epidermal growth factor receptor (Homo sapiens, UniProt P00533); test: Inhibition of wild type EGFR (unknown origin) using Poly (Glu, Tyr) as substrate after 40 mins by kinase-Glo luminescence assay
[5] = molecular target: Epidermal growth factor receptor (Homo sapiens, UniProt P00533, C797S/L858R/T790M); test: Inhibition of wild type EGFR L858R/T790M/C797S mutant (unknown origin) using Poly (Glu, Tyr) as substrate after 40 mins by kinase-Glo luminescence assay
HCC827 [6] = test: Induction of apoptosis in human HCC827 cells harboring EGFR E746-A750 deletion mutant assessed as early apoptotic cells at 3 uM after 24 hrs by Annexin V-FITC/propidium iodide staining based flow cytometry (reference value: 1.34%); type: functional
HCC827 [7] = test: Induction of apoptosis in human HCC827 cells harboring EGFR E746-A750 deletion mutant assessed as late apoptotic cells at 3 uM after 24 hrs by Annexin V-FITC/propidium iodide staining based flow cytometry (reference value: 27.14%); type: functional
[8] = system: Epidermal growth factor receptor (Homo sapiens), P00533 [UNDEFINED MUTATION]; test: Inhibition of EGFR E746-A750 deletion mutant in human HCC827 cells assessed as reduction in ERK phosphorylation at 3.33 uM after 8 hrs by Western blot analysis; type: cell-based
[9] = system: Epidermal growth factor receptor (Homo sapiens), P00533 [UNDEFINED MUTATION]; test: Inhibition of EGFR E746-A750 deletion mutant in human HCC827 cells assessed as reduction in EGFR phosphorylation at 3.33 uM after 8 hrs by Western blot analysis; type: cell-based
[10] = system: Epidermal growth factor receptor (Homo sapiens), P00533 [UNDEFINED MUTATION]; test: Inhibition of EGFR E746-A750 deletion mutant in human HCC827 cells assessed as reduction in EGFR phosphorylation after 8 hrs by Western blot analysis; type: cell-based

Epidermal growth factor receptor (Homo sapiens, UniProt P00533, C797S/L858R/T790M), sequence (P00533 25-1210 T790M/C797S/L858R limits assumed): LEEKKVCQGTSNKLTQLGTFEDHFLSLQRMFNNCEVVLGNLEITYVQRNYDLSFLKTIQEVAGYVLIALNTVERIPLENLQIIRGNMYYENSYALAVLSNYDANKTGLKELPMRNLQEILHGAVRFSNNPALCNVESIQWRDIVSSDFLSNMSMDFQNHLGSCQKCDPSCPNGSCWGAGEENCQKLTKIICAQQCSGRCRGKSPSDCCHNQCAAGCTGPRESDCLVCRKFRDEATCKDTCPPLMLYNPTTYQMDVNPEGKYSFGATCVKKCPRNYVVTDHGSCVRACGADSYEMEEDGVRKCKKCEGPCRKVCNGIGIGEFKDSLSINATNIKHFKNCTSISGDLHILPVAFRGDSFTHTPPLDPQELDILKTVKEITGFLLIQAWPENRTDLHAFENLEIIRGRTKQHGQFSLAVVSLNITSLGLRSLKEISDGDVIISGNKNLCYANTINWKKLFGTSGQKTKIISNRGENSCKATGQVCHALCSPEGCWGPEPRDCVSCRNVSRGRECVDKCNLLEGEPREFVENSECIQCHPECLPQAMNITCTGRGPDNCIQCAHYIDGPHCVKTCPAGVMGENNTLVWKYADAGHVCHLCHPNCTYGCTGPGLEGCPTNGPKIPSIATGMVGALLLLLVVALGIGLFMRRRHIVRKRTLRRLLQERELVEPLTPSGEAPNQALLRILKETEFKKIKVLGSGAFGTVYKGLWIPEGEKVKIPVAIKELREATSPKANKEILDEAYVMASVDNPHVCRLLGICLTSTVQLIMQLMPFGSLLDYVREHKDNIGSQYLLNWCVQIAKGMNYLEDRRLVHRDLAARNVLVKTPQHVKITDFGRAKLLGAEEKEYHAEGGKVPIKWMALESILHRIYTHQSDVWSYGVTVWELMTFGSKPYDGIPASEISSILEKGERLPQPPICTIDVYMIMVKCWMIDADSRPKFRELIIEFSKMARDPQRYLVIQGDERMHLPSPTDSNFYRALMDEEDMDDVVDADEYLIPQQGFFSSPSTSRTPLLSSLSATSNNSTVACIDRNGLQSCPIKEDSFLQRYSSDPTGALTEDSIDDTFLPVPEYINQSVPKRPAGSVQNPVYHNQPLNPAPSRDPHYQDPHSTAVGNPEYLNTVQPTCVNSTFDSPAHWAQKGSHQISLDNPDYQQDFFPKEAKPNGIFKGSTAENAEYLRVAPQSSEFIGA
Epidermal growth factor receptor (Homo sapiens, UniProt P00533, L858R/T790M), sequence (P00533 25-1210 T790M/L858R limits assumed): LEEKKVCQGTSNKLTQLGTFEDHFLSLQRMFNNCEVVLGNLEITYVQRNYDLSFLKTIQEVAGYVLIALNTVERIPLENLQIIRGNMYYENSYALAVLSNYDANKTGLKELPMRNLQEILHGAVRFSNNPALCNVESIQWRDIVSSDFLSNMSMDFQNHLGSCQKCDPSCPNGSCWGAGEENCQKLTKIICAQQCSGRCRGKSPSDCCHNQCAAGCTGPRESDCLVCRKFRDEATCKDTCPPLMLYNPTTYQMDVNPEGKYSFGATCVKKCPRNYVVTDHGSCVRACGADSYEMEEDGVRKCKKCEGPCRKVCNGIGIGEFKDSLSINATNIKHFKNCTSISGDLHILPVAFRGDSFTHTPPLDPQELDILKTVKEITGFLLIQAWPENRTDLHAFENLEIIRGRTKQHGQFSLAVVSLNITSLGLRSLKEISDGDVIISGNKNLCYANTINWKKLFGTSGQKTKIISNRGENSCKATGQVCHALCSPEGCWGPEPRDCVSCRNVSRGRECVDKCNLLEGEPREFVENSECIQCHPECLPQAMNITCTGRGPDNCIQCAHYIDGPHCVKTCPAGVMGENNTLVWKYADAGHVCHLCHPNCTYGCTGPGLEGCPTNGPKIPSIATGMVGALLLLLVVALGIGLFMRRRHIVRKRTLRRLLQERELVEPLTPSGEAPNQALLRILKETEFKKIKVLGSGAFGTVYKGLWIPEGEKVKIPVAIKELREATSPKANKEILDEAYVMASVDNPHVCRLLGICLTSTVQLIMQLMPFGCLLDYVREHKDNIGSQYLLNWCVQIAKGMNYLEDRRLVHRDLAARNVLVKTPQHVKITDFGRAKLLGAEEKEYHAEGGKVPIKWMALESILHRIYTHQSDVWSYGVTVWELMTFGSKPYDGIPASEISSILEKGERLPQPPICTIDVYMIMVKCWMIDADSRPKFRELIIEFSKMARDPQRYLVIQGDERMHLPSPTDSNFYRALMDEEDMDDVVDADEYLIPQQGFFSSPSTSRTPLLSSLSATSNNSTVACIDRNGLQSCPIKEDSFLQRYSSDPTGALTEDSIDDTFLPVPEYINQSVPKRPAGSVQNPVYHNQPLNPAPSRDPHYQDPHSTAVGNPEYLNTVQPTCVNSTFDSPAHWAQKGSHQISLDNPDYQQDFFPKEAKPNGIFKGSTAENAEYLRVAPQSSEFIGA
Epidermal growth factor receptor (Homo sapiens, UniProt P00533), sequence (P00533 whole entry): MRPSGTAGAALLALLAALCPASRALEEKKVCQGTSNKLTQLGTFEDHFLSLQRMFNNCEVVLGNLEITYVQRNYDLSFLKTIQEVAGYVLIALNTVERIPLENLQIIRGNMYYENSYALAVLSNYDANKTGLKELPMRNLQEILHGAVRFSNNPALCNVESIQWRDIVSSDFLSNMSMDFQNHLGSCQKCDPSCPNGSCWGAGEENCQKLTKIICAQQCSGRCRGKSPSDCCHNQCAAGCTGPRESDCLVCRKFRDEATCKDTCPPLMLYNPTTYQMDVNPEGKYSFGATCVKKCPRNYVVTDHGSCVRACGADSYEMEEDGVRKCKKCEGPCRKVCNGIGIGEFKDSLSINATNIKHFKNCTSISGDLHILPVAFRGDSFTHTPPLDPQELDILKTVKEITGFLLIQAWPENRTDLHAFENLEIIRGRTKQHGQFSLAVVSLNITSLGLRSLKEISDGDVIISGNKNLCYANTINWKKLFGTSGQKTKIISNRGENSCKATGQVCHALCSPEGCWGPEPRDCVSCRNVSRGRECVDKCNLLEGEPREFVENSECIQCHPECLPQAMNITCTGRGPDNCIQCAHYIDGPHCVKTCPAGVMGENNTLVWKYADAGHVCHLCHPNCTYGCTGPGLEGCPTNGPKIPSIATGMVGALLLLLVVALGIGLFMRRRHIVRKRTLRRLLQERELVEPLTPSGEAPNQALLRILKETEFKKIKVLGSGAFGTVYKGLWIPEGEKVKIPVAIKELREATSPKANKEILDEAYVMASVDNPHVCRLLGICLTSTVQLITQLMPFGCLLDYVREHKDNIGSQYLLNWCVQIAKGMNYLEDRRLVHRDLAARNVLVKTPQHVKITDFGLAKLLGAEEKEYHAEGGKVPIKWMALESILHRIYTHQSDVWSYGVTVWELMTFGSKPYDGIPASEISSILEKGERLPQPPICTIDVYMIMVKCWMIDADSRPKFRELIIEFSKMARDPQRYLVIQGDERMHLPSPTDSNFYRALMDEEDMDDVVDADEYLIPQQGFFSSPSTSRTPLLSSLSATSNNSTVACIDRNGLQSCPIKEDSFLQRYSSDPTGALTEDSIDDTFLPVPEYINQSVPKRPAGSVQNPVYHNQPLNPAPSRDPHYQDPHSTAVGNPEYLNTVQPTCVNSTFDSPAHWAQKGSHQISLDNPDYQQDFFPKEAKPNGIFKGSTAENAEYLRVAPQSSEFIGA
Epidermal growth factor receptor (Homo sapiens), P00533 [UNDEFINED MUTATION], sequence (P00533 whole entry, looked up, stated change not applied): as the sequence (P00533 whole entry) above

Row | Structure (SMILES) | pIC50 (HCC827 [1]) | pIC50 (A549) | pIC50 (NCI-H1975) | pIC50 [5] | other results
1 | CN(C)C1CCN(c2ccc(Nc3cc4c(N5CCOCC5)nc(NCc5cccnc5)nc4cn3)nc2)CC1 | < 5.00 |  |  |  | 
2 | CN(C)C1CCN(c2ccc(Nc3cc4c(N5CCCC5)nc(Nc5ccccc5)nc4cn3)nc2)CC1 | 6.19 | 6.13 | 6.10 | 7.21 | pIC50 [2]: 7.18; pIC50 [3]: 8.80; pIC50 [4]: 8.26
3 | CN(C)C1CCN(c2ccc(Nc3cc4c(N5CCOCC5)nc(Nc5ccc(F)cc5F)nc4cn3)nc2)CC1 | 6.46 | 5.94 | 6.01 | 7.27 | pIC50 [2]: 7.52; pIC50 [3]: 8.68; pIC50 [4]: 9.05
4 | CN1CCN(c2ccc(Nc3cc4c(N5CCCC5)nc(Nc5ccccc5)nc4cn3)cc2)CC1 | < 5.00 |  |  |  | 
5 | CN(C)C1CCN(c2ccc(Nc3cc4c(N5CCOCC5)nc(Nc5ccccc5)nc4cn3)nc2)CC1 | 6.96 | 6.26 | 6.17 | 7.27 | pIC50 [2]: 7.24; pIC50 [3]: 8.41; pIC50 [4]: 8.34; Activity (HCC827 [6]): 9.32%; Activity (HCC827 [7]): 64.85%
6 | CN(C)C1CCN(c2ccc(Nc3cc4c(N5CCOCC5)nc(NCc5ccccc5)nc4cn3)nc2)CC1 | 5.79 |  | 5.15 |  | 
7 | CN1CCN(c2ccc(Nc3cc4c(N5CCCC5)nc(Nc5ccc(F)c(Cl)c5)nc4cn3)nc2)CC1 | 5.86 |  | 6.28 |  | 
8 | CN(C)C1CCN(c2ccc(Nc3cc4c(N5CCOCC5)nc(OC5CCOCC5)nc4cn3)nc2)CC1 | 5.16 |  | < 5.00 |  | 
9 | CN(C)C1CCN(c2ccc(Nc3cc4c(N5CCOCC5)nc(OCC5CCOCC5)nc4cn3)nc2)CC1 | < 5.00 |  | < 5.00 |  | 
10 | CN(C)CCN(C)c1nc(Nc2ccc(F)cc2)nc2cnc(Nc3ccc(N4CCC(N(C)C)CC4)cn3)cc12 | 6.35 | 6.08 | 6.05 | 7.61 | 
11 | CN1CCN(c2ccc(Nc3cc4c(N5CCCC5)nc(Nc5cnn(C)c5)nc4cn3)nc2)CC1 | 5.44 |  | 5.66 |  | 
12 | CN(C)C1CCN(c2ccc(Nc3cc4c(N5CCC(CO)CC5)nc(Nc5ccc(F)cc5)nc4cn3)nc2)CC1 | 7.36 | 5.97 | 6.40 | 8.14 | inhibition [8]: inactive; inhibition [9]: inactive; inhibition [10]: Dose-dependent effect; pIC50 [2]: 7.47; pIC50 [3]: 8.96; pIC50 [4]: 7.98; Activity (HCC827 [6]): 6.21%; Activity (HCC827 [7]): 74.26%
13 | C=CC(=O)Nc1cc(Nc2nccc(-c3cn(C)c4ccccc34)n2)c(OC)cc1N(C)CCN(C)C [OSIMERTINIB] | 7.57 |  |  |  | Activity (HCC827 [6]): 8.28%; Activity (HCC827 [7]): 68.1%
14 | CN1CCN(c2ccc(Nc3cc4c(N5CCCC5)nc(Nc5ccccc5)nc4cn3)nc2)CC1 | 5.87 | 5.06 | 5.61 |  | pIC50 [2]: 7.07; pIC50 [3]: 8.64; pIC50 [4]: 8.36
15 | Cn1cc(Nc2cc3c(N4CCOCC4)nc(Nc4ccccc4)nc3cn2)cn1 | < 5.00 |  |  |  | 
16 | CN(C)C1CCN(c2ccc(Nc3cc4c(N5CCOCC5)nc(Nc5cccc(C(F)(F)F)c5)nc4cn3)nc2)CC1 | 6.05 | 6.13 | 6.17 |  | 
17 | CN(C)C1CCN(c2ccc(Nc3cc4c(N5CCOCC5)nc(Nc5ccccn5)nc4cn3)nc2)CC1 | 5.78 |  | 5.58 |  | 
18 | CN1CCN(c2ccc(Nc3cc4c(N5CCOCC5)nc(Nc5ccccc5)nc4cn3)nc2)CC1 | 6.70 | 5.99 | 5.89 |  | 

Row | Structure (SMILES) | pIC50 (HCC827 [1]) | pIC50 (A549) | pIC50 (NCI-H1975) | pIC50 [5] | other results
19 | CN1CCN(c2ccc(Nc3cc4c(N5CCOCC5)nc(Nc5cccnc5)nc4cn3)nc2)CC1 | 5.27 |  |  |  | 
20 | CN(C)C1CCN(c2ccc(Nc3cc4c(N5CCOCC5)nc(NCc5ccccn5)nc4cn3)nc2)CC1 | 5.10 |  | < 5.00 |  | 
21 | CN(C)C1CCN(c2ccc(Nc3cc4c(N5CCOCC5)nc(Oc5cccnc5)nc4cn3)nc2)CC1 | 5.60 |  | < 5.00 |  | 
22 | CN(C)C1CCN(c2ccc(Nc3cc4c(N5CCOCC5)nc(Nc5ccc(F)c(Cl)c5)nc4cn3)nc2)CC1 | 6.41 | 6.01 | 5.94 |  | 
23 | CN1CCN(c2ccc(Nc3cc4c(N(C)C)nc(Nc5ccccc5)nc4cn3)cc2)CC1 | < 5.00 |  |  |  | 
24 | CN(C)C1CCN(c2ccc(Nc3cc4c(N5CCOCC5)nc(Nc5cccnc5)nc4cn3)nc2)CC1 | 5.74 |  | 4.90 |  | 
25 | CN1CCN(c2ccc(Nc3cc4c(N5CCCC5)nc(Nc5cccc(F)c5)nc4cn3)nc2)CC1 | 6.00 | < 5.00 | < 5.00 |  | 
26 | CN1CCN(c2ccc(Nc3cc4c(N5CCCCC5)nc(Nc5ccccc5)nc4cn3)nc2)CC1 | 6.57 | 5.88 | 5.69 | 7.64 | pIC50 [2]: 7.35; pIC50 [3]: 8.96; pIC50 [4]: 8.96
27 | CN1CCN(c2ccc(Nc3cc4c(N(C)C)nc(Nc5ccccc5)nc4cn3)nc2)CC1 | 5.94 | < 5.00 | 5.13 |  | 
28 | CN(C)C1CCN(c2ccc(Nc3cc4c(N5CCOCC5)nc(Nc5ccc(F)cc5)nc4cn3)nc2)CC1 | 6.51 | 6.28 | 5.78 | 7.55 | pIC50 [2]: 7.54; pIC50 [3]: 8.60; pIC50 [4]: 8.82
29 | CN(CCCO)c1nc(Nc2ccc(F)cc2)nc2cnc(Nc3ccc(N4CCC(N(C)C)CC4)cn3)cc12 | 7.10 | 6.38 | 6.52 | 7.28 | 
30 | CN1CCN(c2nc(Nc3ccc(F)cc3)nc3cnc(Nc4ccc(N5CCC(N(C)C)CC5)cn4)cc23)CC1 | 6.89 | 6.22 | 6.26 | 7.46 | 
31 | CN(C)C1CCN(c2ccc(Nc3cc4c(N5CCC(CO)CC5)nc(Nc5ccccc5)nc4cn3)nc2)CC1 | 7.19 | 6.16 | 6.38 | 7.08 | pIC50 [2]: 7.36; pIC50 [3]: 8.49; pIC50 [4]: 8.68
32 | CN(C)C1CCN(c2ccc(Nc3cc4c(N5CCCCC5)nc(Nc5ccccc5)nc4cn3)nc2)CC1 | 6.62 | 6.27 | 5.99 | 7.82 | pIC50 [2]: 7.63; pIC50 [3]: 8.31; pIC50 [4]: 9.05
33 | CN1CCN(c2ccc(Nc3cc4c(N5CCOCC5)nc(Nc5cccc(C(F)(F)F)c5)nc4cn3)nc2)CC1 | < 5.00 |  |  |  | 
34 | CN(CCO)c1nc(Nc2ccccc2)nc2cnc(Nc3ccc(N4CCC(N(C)C)CC4)cn3)cc12 | 6.62 | 6.16 | 6.23 | 7.29 | 
35 | CN(C)CCN(C)c1ccc(Nc2cc3c(N4CCCC4)nc(Nc4ccccc4)nc3cn2)nc1 | 5.72 | 5.89 | 6.09 |  | 
